{
  "source": "patent US7160733B2",
  "about": "“Ligand specific to β2-glycoprotein I and use thereof” (priority 2001, dated 2007)",
  "key": {"[1]": {"target": "T1, β2-GPI (Homo sapiens, UniProt P02749)", "T1 construct": "β2-GPI was purified from normal human plasma as described in [35] with slight modification; from tissue; host or cells: pooled normal human plasma from healthy subjects", "T1 sequence (P02749 20-345)": "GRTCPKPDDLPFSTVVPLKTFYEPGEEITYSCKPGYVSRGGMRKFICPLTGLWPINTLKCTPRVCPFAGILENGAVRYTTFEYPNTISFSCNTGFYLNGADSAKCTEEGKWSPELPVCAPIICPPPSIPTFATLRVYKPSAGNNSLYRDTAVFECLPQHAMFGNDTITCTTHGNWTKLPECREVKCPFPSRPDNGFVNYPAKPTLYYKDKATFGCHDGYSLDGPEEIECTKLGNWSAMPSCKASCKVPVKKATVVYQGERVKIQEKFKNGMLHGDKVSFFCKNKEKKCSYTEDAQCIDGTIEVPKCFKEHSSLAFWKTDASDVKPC", "test": "ELISA on solid-phase lipid (ligand)-coated plate: β2-GPI binding detected with Cof-22", "experimental": "(§1) Binding to extracted lipids: A microtiter plate (Immulon 1B, Dynex Technologies Inc.) was coated with lipids extracted from LDLs (50 μg/mL, 50 μL/well) by ethanol evaporation. The wells were blocked with PBS containing 1% BSA for one hour and the wells were incubated with 30 μg/mL of β2-GPI for one hour. Then, β2-GPI binding was detected using Cof-22 and HRP-labeled anti-mouse IgG antibodies. Alternatively, an anti-β2-GPI autoantibody (Cof-22, WB-CAL-1, or EY2C9) was diluted with a 0.3% BSA-containing PBS, and the diluted antibody was added to the coated plate (1.0 μg/mL, 100 μL/well) and incubated with β2-GPI (15 μg/mL) for one hour. The binding of the antibody was detected by an HRP-labeled anti-mouse IgG /or an anti-human IgM. The color was developed with H2O2 and o-phenylenediamine, and OD was measured at 490 nm. Between these steps, extensive washing were done using PBS containing 0.05% Tween 20.\n(§2) Synthesized oxLig-1 (50 μg/mL, 50 μL/well) was adsorbed by evaporation on a polystyrene plate (Immulon 1B; Dynex Technologies Inc.), and the plate was then blocked with 1% BSA. Serum samples (diluted 1:100 with PBS containing 0.3% BSA) were incubated in the wells with β2-GPI (15 μg/mL) or other proteins for one hour at room temperature. Antibody binding was detected with HRP-labeled anti-human IgG. Further steps were performed through a method as described in “anti-β2-GPI ELISA.”\n(§3) CL (50 μg/mL, 50 μL/well) was adsorbed on a polystyrene plate (Immulon 1B), and further steps were performed through a method as described in “ELISA for antibodies against a protein-oxLig-1 complex.”"}, "[2]": {"test_system": "APS-1", "test": "ELISA on solid-phase lipid-coated plate: binding of antibodies of APS patient serum APS-1", "design": "species or system human", "settings": "Experiment 1; Absorbance, mean ± SD, n = 3; solid-phase lipid, β2-GPI 15 μg/mL; serum with β2-GPI removed", "experimental": "To eliminate endogenous β2-GPI in some experiments, serum samples were passed through a heparin-Sepharose column. The effluent was dialyzed against PBS and was used for ELISAs.\nas §2, §3"}, "[3]": {"test_system": "anti-β2-GPI antibodies", "test": "ELISA of the anti-β2-GPI antibodies by use of a ligand-coated plate (results in words)", "assay_type": "binding", "settings": "result in words", "experimental": "as §1, §2"}},
  "data": [
    {"smiles": "CC(C)CCC[C@@H](C)[C@H]1CC[C@H]2[C@@H]3C(=O)C=C4C[C@@H](OC(=O)CCCCCCCC(=O)O)CC[C@]4(C)[C@H]3CC[C@]12C", "note": "[oxLig-1, 9-oxo-9-(7-ketocholest-5-en-3β-yloxy)nonanoic acid]", "values": [
      {"measurement": "Binding of β2-GPI-dependent aCL, Cof-22", "setting": "[1]; Experiment 1, Absorbance, mean ± SD, n = 3, solid-phase lipid, β2-GPI 15 μg/mL", "result": "1.066 ± 0.114"},
      {"measurement": "β2-GPI binding (Cof-22 binding), No treatment", "setting": "[1]; absorbance at 490 nm, mean ± SD (n = 3), solid-phase ligand not methylated", "result": "1.307 +/− 0.105"},
      {"measurement": "β2-GPI binding to lipid", "setting": "[1]; result in words (discussion)", "result": "significant bonding"},
      {"measurement": "Binding of β2-GPI-dependent aCL, APS-1", "setting": "[2]", "result": "1.130 ± 0.177"},
      {"measurement": "binding of the anti-β2-GPI autoantibodies (WB-CAL-1 and EY2C9) to solid-phase ligand", "setting": "[3]; ligand-coated plate", "result": "significant binding"},
      {"measurement": "cross-reaction of autoantibodies derived from APS with β2-GPI complexed with lipid", "setting": "[3]", "result": "cross-reacted"}
    ]}
  ]
}
